± gives the standard deviation.
Experiments:
[1] = chemical recovery into PDMS from spiked human plasma; higher = better extraction; settings: pooled human plasma, extraction method: PES with PDMS
[2] = chemical recovery by SPE of plasma after PDMS sampling; higher = better extraction; settings: pooled human plasma, extraction method: HLB SPE of plasma after PES
[3] = chemical recovery from spiked human plasma; higher = better extraction; settings: pooled human plasma
[4] = extraction method: PES+SPE (3 d PDMS equilibration then HLB SPE)
[5] = extraction method: SPE only (HLB 96-well)
[6] = extraction method: SPE only (HLB 96-well), PES comparison experiment
[7] = extraction method: solvent precipitation (ACN + hexane)
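Throughout, for chemical recovery by SPE of plasma after PDMS sampling: over 400 spiked chemicals quantified by LC-HRMS or GC-HRMS via internal standard calibration, recovery relative to spike mix added to unspiked plasma extract to correct matrix effects.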

| SMILES | chemical recovery into PDMS ([1]; equilibration time (d): 1) | chemical recovery into PDMS ([1]; equilibration time (d): 3) | chemical recovery into PDMS ([1]; equilibration time (d): 6) | chemical recovery by SPE of plasma ([2]; equilibration time (d): 1) | chemical recovery by SPE of plasma ([2]; equilibration time (d): 3) | chemical recovery by SPE of plasma ([2]; equilibration time (d): 6) | chemical recovery [3, 4] | chemical recovery [3, 5] | chemical recovery [3, 6] | chemical recovery [3, 7] |
| --- | --- | --- | --- | --- | --- | --- | --- | --- | --- | --- |
| O=C1Nc2ccc(Cl)cc2C(c2ccccc2Cl)=NC1O (stereo unspecified) [Lorazepam] | 4.25 ± 0.37% | 8.29 ± 1.1% | 9.18 ± 1.4% | 38.9 ± 5.5% | 38.9 ± 3% | 31.1 ± 1.8% | 36.5 ± 2.4% | 30.9 ± 2.8% | 45.6 ± 7% | 72.1 ± 3.6% |
| CCCCOCCOCCOCc1cc2c(cc1CCC)OCO2 [Piperonyl butoxide] | 46.4 ± 3.2% | 48.7 ± 3.9% | 46 ± 2.6% | 0.249 ± 0.12% | 0.337 ± 0.29% | 0.24 ± 0.013% | – | – | 39.5 ± 6.4% | – |
| CCCCc1oc2ccccc2c1C(=O)c1cc(I)c(OCCN(CC)CC)c(I)c1 [Amiodarone] | 0.0444 ± 0.019% | 0.131 ± 0.037% | 0.0473 ± 0.062% | 0.357 ± 0.17% | 0.127 ± 0.05% | – | – | 37.9 ± 13% | – | 106 ± 22% |
| N#C/N=C1\SCCN1Cc1ccc(Cl)nc1 [Thiacloprid] | 18.1 ± 1.4% | 26.3 ± 4.2% | 29.8 ± 2.2% | 39.3 ± 6% | 33.4 ± 2.5% | 25.1 ± 4.8% | 55.5 ± 5.8% | 43.4 ± 3.5% | 55.7 ± 4.2% | 79.2 ± 2.9% |
| CCNc1ccc2c(C)cc(=O)oc2c1 [7-(Ethylamino)-4-methylcoumarin] | 26.7 ± 4.1% | 28.7 ± 3% | 30.7 ± 1.9% | 6.09 ± 0.59% | 4.96 ± 0.66% | 2.87 ± 0.15% | 42.9 ± 6.9% | 45.6 ± 5.5% | 50 ± 6% | 77.9 ± 3.2% |
| CS(=O)(=O)c1ccc(C(=O)C2C(=O)CCCC2=O)c(Cl)c1 [Sulcotrione] | – | – | 0.00153 ± 0.0027% | 53.9 ± 7% | 59.9 ± 2.5% | 54.5 ± 2% | 57 ± 5.9% | 47.6 ± 3.3% | 51.3 ± 2.9% | 72.8 ± 3.6% |
| C[C@]12CC[C@H]3[C@@H](CCC4=CC(=O)CC[C@@]43C)[C@@H]1CC[C@@H]2O [Testosterone] | 29.7 ± 1.9% | 35.7 ± 2.2% | 35.6 ± 0.61% | 16 ± 3.3% | 14.5 ± 1.6% | 8.83 ± 2.7% | – | – | 52.8 ± 8.8% | – |
| COCCN(C(=O)C(=O)O)c1c(C)cccc1C [Dimethachlor OA] | – | – | 0.00348 ± 0.006% | 60.2 ± 9.2% | 69.4 ± 2.3% | 61.4 ± 2.8% | – | 28.1 ± 6.4% | 51.3 ± 3.7% | 56.8 ± 7.6% |
| Cc1cc(Cc2ccc(N)c(C)c2)ccc1N [4,4'-Methylene-bis(2-methyl aniline)] | 0.0153 ± 0.026% | 0.00421 ± 0.0073% | 0.0106 ± 0.018% | 4.29 ± 0.41% | 4.74 ± 0.39% | 2.61 ± 0.21% | 1.31 ± 0.94% | 30.3 ± 9.8% | 24.5 ± 4% | 65 ± 9.2% |

Source: the supplement of paper PMC10702517
